# Experimental data from patent US10934312B2, “Tricyclic heterocycle compounds useful as HIV integrase inhibitors” (Merck Sharp & Dohme Corp., priority 2016, dated 2021).
# Test system: HIV-1 (NL4-3 strain)
# Experiment: Assay for Inhibition of HIV Replication (VIKING, MT4-gag-GFP reporter cells)
# Assay type: cell-based
# Conditions: 0% normal human serum; MT4-GFP cells infected with HIV-1 NL4-3; infected cells at 48 h / 24 h; read-out: VIKING IP50 (nM) with 0% NHS
# Procedure: This assay may be useful for assessing the ability of a compound of the present invention to inhibit HIV replication. The assay is a kinetic assay that employs a reporter cell line (MT4-gag-GFP) to quantify the number of new cells infected in each round of replication.
# MT4-GFP cells (250,000 cells/ml) are bulk-infected with HIV-1 (NL4-3 strain) at low multiplicity of infection (MOI) in RPMI+10% FBS for 24 hours. Cells are then washed once in RPMI+10% FBS and resuspended in RPMI+0% normal human serum (NHS). Test compounds are serial-diluted in DMSO on ECHO. The infected MT4-GFP cells are added to a 384-well poly-D-lysine coated black plate with clear bottom in which the diluted test compounds are placed. The cells are seeded at 8,000 cells per well and the final DMSO concentration is adjusted to 0.4%. The infected cells (Green GFP cells) are then quantified at both 24 and 48 hours post incubation using Acumen eX3. Viral reproductive ratio (R0) is determined using the number of infected cells at 48 hours divided by the number of infected cells at 24 hours. Percent viral growth inhibition is calculated by [1-(R—Rtripledrug)/(RDMSO—Rtripledrug)]*100. Compound potency IP or IC50 may be determined using a 4-parameter dose response curve analysis.
row,Structure (SMILES),IC50
1,"COCCN1CN2CC(OC)c3c(C(=O)NCc4ccc(F)cc4)c(=O)c(O)c(n32)C1=O (single isomer, unassigned) [Compound 14]",4.6 nM
2,"COC1CN2CN(C)C(=O)c3c(O)c(=O)c(C(=O)NCc4cccc(Cl)c4F)c1n32 (single isomer, unassigned) [Compound 31]",0.5 nM
3,"COCCN1CN2CC(OC)c3c(C(=O)NCc4cccc(Cl)c4F)c(=O)c(O)c(n32)C1=O (single isomer, unassigned) [Compound 12]",2.3 nM
4,"COCCN1CN2CC(OC)c3c(C(=O)NCc4cccc(Cl)c4F)c(=O)c(O)c(n32)C1=O (single isomer, unassigned) [Compound 13]",1 nM
5,"COC1CN2CN(CC3CC3)C(=O)c3c(O)c(=O)c(C(=O)NCc4cccc(Cl)c4F)c1n32 (single isomer, unassigned) [Compound 20]",1.2 nM
6,COC1CN2n3c(c(O)c(=O)c(C(=O)NCc4ccc(F)cc4F)c31)C(=O)N(C)C21CCOC1 (stereo not drawn) [Compound 37],8.5 nM
7,"COCCN1CN2CC(OC)c3c(C(=O)NCc4ccc(F)c(Cl)c4F)c(=O)c(O)c(n32)C1=O (single isomer, unassigned) [Compound 11]",1.1 nM
8,"CCN1CN2CC(OC)c3c(C(=O)NCc4cccc(Cl)c4F)c(=O)c(O)c(n32)C1=O (single isomer, unassigned) [Compound 27]",1.2 nM
9,"COC1CN2CN(C)C(=O)c3c(O)c(=O)c(C(=O)NCc4ccc(F)c(Cl)c4)c1n32 (single isomer, unassigned) [Compound 33]",0.8 nM
10,"CCN1CN2CC(OC)c3c(C(=O)NCc4ccc(F)c(Cl)c4F)c(=O)c(O)c(n32)C1=O (single isomer, unassigned) [Compound 25]",0.9 nM
11,"COCCN1CN2CC(OC)c3c(C(=O)NCc4ccc(F)cc4)c(=O)c(O)c(n32)C1=O (single isomer, unassigned) [Compound 15]",1.9 nM
12,"COC1CN2CN(C)C(=O)c3c(O)c(=O)c(C(=O)NCc4cccc(Cl)c4F)c1n32 (single isomer, unassigned) [Compound 30]",1.5 nM
13,COC1CN2n3c(c(O)c(=O)c(C(=O)NCc4ccc(F)cc4F)c31)C(=O)N(C)C21CCOC1 (stereo not drawn) [Compound 40],3.8 nM
14,COC1CN2n3c(c(O)c(=O)c(C(=O)NCc4ccc(F)cc4F)c31)C(=O)N(C)C21CCOC1 (stereo not drawn) [Compound 39],2.4 nM

# Same assay, conditions: Human immunodeficiency virus 1, NL43, 0% normal human serum; MT4-GFP cells infected with HIV-1 NL4-3; infected cells at 48 h / 24 h; read-out: VIKING IP50 (nM) with 0% NHS
row,Structure (SMILES),IC50
1,"CCN1CN2CC(OC)c3c(C(=O)NCc4ccc(F)c(Cl)c4F)c(=O)c(O)c(n32)C1=O (single isomer, unassigned) [Compound 24]",1.5 nM
2,"COC1CN2CN(C)C(=O)c3c(O)c(=O)c(C(=O)NCc4ccc(F)c(Cl)c4)c1n32 (single isomer, unassigned) [Compound 32]",1.2 nM
3,"COC1CN2CN(CC3CC3)C(=O)c3c(O)c(=O)c(C(=O)NCc4cccc(Cl)c4F)c1n32 (single isomer, unassigned) [Compound 19]",2.4 nM
4,CN1CN2CCc3c(C(=O)NCc4c(F)ccc(Cl)c4F)c(=O)c(O)c(n32)C1=O [Compound 43],1.8 nM
5,"COCCN1CN2CC(OC)c3c(C(=O)NCc4ccc(F)cc4F)c(=O)c(O)c(n32)C1=O (single isomer, unassigned) [Compound 9]",1.4 nM
6,CN1CN2CCc3c(C(=O)NCc4ccc(F)cc4F)c(=O)c(O)c(n32)C1=O [Compound 42],1.6 nM
7,"COC1CN2CN(CC3CC3)C(=O)c3c(O)c(=O)c(C(=O)NCc4ccc(F)c(Cl)c4)c1n32 (single isomer, unassigned) [Compound 21]",1 nM
8,COCCN1CN2C(=O)N(C)Cc3c(C(=O)NCc4ccc(F)cc4F)c(=O)c(O)c(n32)C1=O [Compound 5],1.7 nM
9,CCN1CN2CCc3c(C(=O)NCc4ccc(F)cc4F)c(=O)c(O)c(n32)C1=O [Compound 35],2.2 nM
10,CCN1CN2CC(OC)c3c(C(=O)NCc4ccc(F)cc4F)c(=O)c(O)c(n32)C1=O (stereo not drawn) [Compound 22],2.1 nM
11,CCN1CN2CCCc3c(C(=O)NCc4ccc(F)cc4F)c(=O)c(O)c(n32)C1=O [Compound 36],11.4 nM
12,"COC1CN2CN(CC3CC3)C(=O)c3c(O)c(=O)c(C(=O)NCc4ccc(F)cc4F)c1n32 (single isomer, unassigned) [Compound 18]",0.4 nM
13,"COCCN1CN2CC(OC)c3c(C(=O)NCc4ccccc4F)c(=O)c(O)c(n32)C1=O (single isomer, unassigned) [Compound 16]",1.5 nM
14,COC1CN2CN(C(C)C)C(=O)c3c(O)c(=O)c(C(=O)NCc4ccc(F)cc4F)c1n32 (stereo not drawn) [Compound 7],13.3 nM
15,CCN1Cn2ccc3c(C(=O)NCc4ccc(F)cc4F)c(=O)c(O)c(n32)C1=O [Compound 34],11.5 nM
16,CC(C)N1CN2C(=O)N(C)Cc3c(C(=O)NCc4ccc(F)cc4F)c(=O)c(O)c(n32)C1=O [Compound 4],2 nM
17,CN1CN2CCc3c(C(=O)NCc4c(F)cc(F)cc4F)c(=O)c(O)c(n32)C1=O [Compound 41],2.9 nM
18,"COCCN1CN2CC(OC)c3c(C(=O)NCc4ccc(F)c(Cl)c4F)c(=O)c(O)c(n32)C1=O (single isomer, unassigned) [Compound 10]",1.4 nM
19,"CCN1CN2CC(OC)c3c(C(=O)NCc4ccc(F)cc4F)c(=O)c(O)c(n32)C1=O (single isomer, unassigned) [Compound 23]",4.1 nM
20,"COC1CN2CN(C)C(=O)c3c(O)c(=O)c(C(=O)NCc4ccc(F)cc4F)c1n32 (single isomer, unassigned) [Compound 29]",9.9 nM
21,"CCN1CN2CC(OC)c3c(C(=O)NCc4cccc(Cl)c4F)c(=O)c(O)c(n32)C1=O (single isomer, unassigned) [Compound 26]",1.5 nM
22,COC1CN2n3c(c(O)c(=O)c(C(=O)NCc4ccc(F)cc4F)c31)C(=O)N(C)C21CCOC1 (stereo not drawn) [Compound 38],2.6 nM
